We go through four compounds from ChEMBL document CHEMBL4354803, “Synthesis and biological activity of structurally diverse phthalazine derivatives: A systematic review” (Bioorg Med Chem, 2019).

What is called ED50 is the dose that gives a 50% effect, or the effect in half of the subjects. One may read the IC50 as the concentration at which inhibition is half-maximal.

SMILES strings stand for the structures.

Experiment [1] relates to Mus musculus. Nature of the experiment: Anticonvulsant activity in ip dosed Kunming mouse assessed as protection against 50 mA current-induced seizure measured after 0.5 hrs by maximal electroshock seizure test. It is filed as functional. On the technique in general: Protection in the maximal electroshock model is a classic sign of anticonvulsant action.
For the next experiment, the system named is HCT-116. Nature of the experiment: Antiproliferative activity against human HCT116 cells after 5 days by CellTiter-Glo Luminescent Cell Viability Assay. The following applies: HCT-116, 120 h. It is filed as functional, cell-based. For orientation: ATP-based viability assays read luminescence as a measure of living cells.
The next experiment deals with T1, Aurora kinase A (Homo sapiens, UniProt O14965).
T1 sequence (O14965 whole entry): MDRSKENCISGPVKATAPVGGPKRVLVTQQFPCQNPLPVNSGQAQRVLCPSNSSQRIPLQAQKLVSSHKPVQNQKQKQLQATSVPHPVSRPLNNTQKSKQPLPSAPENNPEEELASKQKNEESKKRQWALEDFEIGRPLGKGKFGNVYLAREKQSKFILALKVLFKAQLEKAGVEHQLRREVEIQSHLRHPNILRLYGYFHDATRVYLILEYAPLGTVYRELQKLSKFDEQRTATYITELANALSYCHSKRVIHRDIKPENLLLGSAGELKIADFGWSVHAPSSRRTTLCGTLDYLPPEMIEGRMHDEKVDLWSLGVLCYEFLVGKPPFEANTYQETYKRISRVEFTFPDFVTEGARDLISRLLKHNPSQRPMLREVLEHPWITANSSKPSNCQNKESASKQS
Nature of the experiment: Inhibition of C-terminal His4-tagged Aurora A (unknown origin) using PKB-GSK2 biotinylated peptide as substrate incubated for 90 mins by ELISA. On the technique in general: In an ELISA, binding on a coated surface is turned into a signal by an enzyme label.

Experiment [2] concerns Mus musculus. Nature of the experiment: Antidiabetic activity in C57BL/KsJ mouse assessed as maximum reduction in blood glucose level at 200 mg/kg, po administered for 9 days by spectrometric method relative to control. It is filed as functional. Also on record: scale not given: the % may be the effect or the level left.
Experiment [3] deals with HepG2. Nature of the experiment: Potency index, ratio of sorafenib IC50 to compound IC50 for cytotoxicity against human HepG2 cells by sulforhodamine B assay. It is filed as functional.
Experiment [4] relates to HepG2. Nature of the experiment: Potency index, ratio of doxorubicin IC50 to compound IC50 for cytotoxicity against human HepG2 cells by sulforhodamine B assay. Type of experiment: functional.

With `FC(F)(F)c1cccc(COc2nn3cnnc3c3ccccc23)c1`, the ED50 in the experiment with Mus musculus [1] worked out at 9.3 mg/kg.
For `Cc1cc(Nc2nn(C(C)C)c(=O)c3cc(OCCN4CCOCC4)ccc23)n[nH]1`, the IC50 in the experiment on HCT-116 was 7 nM; against Aurora kinase A it was 420 nM.
As for `Cc1nn(CCOc2ccc(CC3SC(=O)NC3=O)cc2)c(=O)c2ccccc12` (stereo unspecified), in the experiment with Mus musculus [2], the Activity result is on record as “<=61%”.
`O=C(Cn1nc(Cc2ccccc2)c2ccccc2c1=O)Nc1ccccc1Cl`: the “Ratio IC50” value with HepG2 [3] and in the experiment on HepG2 [4] was 2.9 throughout.
